From patent publication US20260144259A1, “CRYSTAL OF 2-(5-CYCLOPROPYL-3-(ETHYLSULFONYL)PYRIDIN-2-YL)-5-((TRIFLUOROMETHYL)SULFINYL)BENZO[D]OXAZOLE” (SUMITOMO CHEMICAL COMPANY, LIMITED, priority 2022, published 2026)

Assays:
Assay type in all cases: in vivo
[1] = test system: brown planthoppers (Nilaparvata lugens); test: Test method 5: sprayed rice seedling with brown planthoppers; conditions: 144 h, rice sprayed 10 mL/seedling, third instar larvae, after 6 days, 25° C., read-out: mortality of insects
Experimental: (§1) Next, an efficacy of the Type 1 crystal of Compound (1) on controlling harmful arthropods is shown by Test examples. The following tests were conducted at 25° C.
(§2) Test compound is made to a formulation according to a similar method to that described in the Formulation example 1, and thereto is added water containing 0.03 v/v % of Shindain (registered trademark) to prepare a dilution containing a prescribed concentration of the test compound.
Rice (Oryza sativa) seedling (on the developmental stage of the second leaf) is planted in a cup, and the dilutions are sprayed onto the seedling at a ratio of 10 mL/seedling. Thereafter, twenty (20) brown planthoppers (Nilaparvata lugens) at the third instar larval stage are released into the cup. After 6 days, the number of the surviving insects is counted, and the mortality of insects is calculated by the following equation.

[2] = test system: diamondback moths (Plutella xylostella); test: Test method 3: sprayed cabbage leaves fed to diamondback moths; conditions: 120 h, cabbage sprayed 20 mL/seedling, second instar larvae, after 5 days, 25° C., read-out: mortality of insects
Experimental: as §1, §2
(§3) Cabbage (Brassicae oleracea) seedling (on the developmental stage of the second to third true leaf) is planted in a cup, and the dilutions are sprayed onto the seedling at a ratio of 20 mL/seedling. Thereafter, the stem and leaf thereof are cut out and then are placed into a cup that is lined with a filter paper. Five (5) diamondback moths (Plutella xylostella) at the second instar larval stage are released into the cup. After 5 days, the number of the surviving insects is counted, and the mortality of insects is calculated by the following equation.

[3] = test system: common cutworms (Spodoptera litura); test: Test method 2: sprayed cabbage leaves fed to common cutworms; conditions: 120 h, cabbage sprayed 20 mL/seedling, second instar larvae, after 5 days, 25° C., read-out: mortality of insects
Experimental: as §1, §2
as §3, with “common cutworms (Spodoptera litura)” for “diamondback moths (Plutella xylostella)”

[4] = test system: Argentine ant (Linepithema humile); test: Test method 7: sugar-water filter paper test on Argentine ant workers; conditions: 0.2 ppm, 0.7 ml dilution in sugar water on filter paper, after 6 days, 25° C.
Experimental: as §1
(§4) Test compound is made to a formulation according to a similar method to that described in the Formulation example 1, and thereto is added 1.8 g of sucrose, followed by adding 3% sugar water to prepare a dilution containing a prescribed concentration of the test compound.
(§5) A filter paper having a diameter of 5.5 cm is spread on the bottom of the cup, and then 0.7 ml of the dilutions are added dropwise to the filter paper, and ten (10) Argentine ant (Linepithema humile) workers are released into the cup, and the cup is covered with the lid. After 6 days, the number of the dead and distressed individuals of Argentine ant workers are counted, and the ratio of distressed and dead insects (%) is calculated by the following equation.
(§6) Here the dead individual is one whose behavior has completely stopped, and a distressed individual is one that cannot stand up when placed on its back and also cannot walk.

[5] = test system: cotton aphids (Aphis gossypii); test: Test method 6: sprayed cucumber seedling, artificial rainfall, then cotton aphids released; conditions: 0.5 ppm; cucumber sprayed 10 mL/seedling, dried, artificial rain 10 mm/hr for 1 hour; female adults released after one day; after 5 days; 25° C.
Experimental: Next, an efficacy of the Type 1 crystal of Compound (1) on controlling harmful arthropods is shown by Test examples. The following tests were conducted at 25° C. Test compound is made to a formulation according to a similar method to that described in the Formulation example 1, and thereto is added water containing 0.02 v/v % of Shindain (registered trademark) to prepare a dilution containing a prescribed concentration of the test compound. Only the second true leaves of Cucumber (Cucumis sativus) seedling (on the developmental stage of the third true leaf) are retained, and the other leaves are cut off, and the dilutions are sprayed onto the seedling at a ratio of 10 mL/seedling. After the dilution, which is treated, is dried, rain is given to the cucumber seedling with an artificial rainfall device at 10 mm/hr for 1 hour. After one day, 10 cotton aphids (Aphis gossypii) female adults are released onto the seedling. After 5 days, the number of the surviving insects is examined and the controlling value is calculated by the following equation. […]

[6] = test system: cotton aphids (Aphis gossypii); test: Test method 1: spray on cucumber seedling infested with cotton aphids; conditions: 500 ppm; sprayed 10 mL/seedling on cucumber one day after release of about 30 aphids (all stages); after 5 days; 25° C.
Experimental: Next, an efficacy of the Type 1 crystal of Compound (1) on controlling harmful arthropods is shown by Test examples. The following tests were conducted at 25° C. Test compound is made to a formulation according to a similar method to that described in the Formulation example 1, and thereto is added water containing 0.03 v/v % of Shindain (registered trademark) to prepare a dilution containing a prescribed concentration of the test compound. Cucumber (Cucumis sativus) seedling (on the developmental stage of the second true leaf) is planted in a cup, and approximately 30 cotton aphids (Aphis gossypii) (all stages of life) are released onto the seedling. After one day, the dilutions are sprayed onto the seedling at a ratio of 10 mL/seedling. After 5 days, the number of the surviving insects is examined and the controlling value is calculated by the following equation. […]

[7] = test system: common house mosquitos (Culex pipiens pallens); test: Test method 4: common house mosquito larvae released into dilution; conditions: 24 h, last instar larvae released into dilution, after 1 day, 25° C., read-out: mortality of insects
Experimental: as §1
Test compound is made to a formulation according to a similar method to that described in the Formulation example 1, and thereto is added water to prepare a dilution containing a prescribed concentration of the test compound.
Into the dilution, 30 common house mosquitos (Culex pipiens pallens) at the last instar larval stage are released, and after 1 day, the state of the common house mosquito larvae is examined, and the mortality of insects is calculated by the following equation.

[8] = test system: German cockroach (Blattella germanica); test: Test method 9: sugar-water filter paper test on German cockroach male adults; conditions: 0.2 ppm, 0.7 ml dilution in sugar water on filter paper, after 5 days, 25° C.
Experimental: as §1, §4
as §5, with “five (5) German cockroach (Blattella germanica) male adults” for “and ten (10) Argentine ant (Linepithema humile) workers”, “5” for “6”, “German cockroach male adults” for “Argentine ant workers”
as §6

[9] = test system: pharaoh ant (Monomorium pharaonis); test: Test method 8: sugar-water filter paper test on pharaoh ant workers; conditions: 0.05 ppm, 0.7 ml dilution in sugar water on filter paper, after 2 days, 25° C.
Experimental: as §1, §4
as §5, with “pharaoh” for “Argentine”, “(Monomorium pharaonis)” for “(Linepithema humile)”, “2” for “6”
as §6

[10] = test system: common house mosquito (Culex pipiens pallens); test: Test method 10: sugar-water filter paper test on common house mosquito female adults; conditions: 0.8 ppm, 0.7 ml dilution in sugar water on filter paper, after 2 days, 25° C.
Experimental: as §1, §4
as §5, with “five (5) common house mosquito (Culex pipiens pallens) female adults” for “and ten (10) Argentine ant (Linepithema humile) workers”, “2” for “6”, “[…] female adults” for “Argentine ant workers”
Here the dead individual is one whose behavior has completely stopped, and a distressed individual is one that cannot fly and also cannot walk.

SMILES	mortality at 500 ppm [1]	mortality at 500 ppm [2]	mortality at 500 ppm [3]	ratio of distressed and dead insects [4]	controlling value [5]	controlling value [6]	mortality at 3.5 ppm [7]	ratio of distressed and dead insects [8]	ratio of distressed and dead insects [9]	ratio of distressed and dead insects [10]
CCS(=O)(=O)c1cc(C2CC2)cnc1-c1nc2cc([S+]([O-])C(F)(F)F)ccc2o1 (stereo not drawn) [Type 1 crystal of Compound (1), 2-(5-cyclopropyl-3-(ethylsulfonyl)pyridin-2-yl)-5-((trifluoromethyl)sulfinyl)benzo[d]oxazole]	≥ 90%	≥ 80%	≥ 80%	95%	55.7%	≥ 90%	≥ 90%	100%	100%	100%
CCS(=O)(=O)c1cc(C2CC2)cnc1-c1nc2cc([S+]([O-])C(F)(F)F)ccc2o1 (stereo not drawn) [amorphous of Compound (1), 2-(5-cyclopropyl-3-(ethylsulfonyl)pyridin-2-yl)-5-((trifluoromethyl)sulfinyl)benzo[d]oxazole]				30%	32.4%			0%	15%	20%
